For experiment [1], the system named is riboSAM (full-length SAM-VI riboswitch, 95 nt) (RNA, riboswitch) GGGAAGAAAUAACAAUCAACGACGUAUCAUUGUGCCUCGCUUUCCGCGGGGCGAUAAGUCCUGAAGAAAGGGAUGAUAUGACAUAAGAACAUCGG …. Put plainly: ITC. The conditions noted are these: 100 mM KCl, 10 mM MgCl2; 40 mM HEPES, pH 7.5, room temperature; 45 μM RNA.
Experiment [2] deals with 15N-16U24G-riboSAM (RNA, riboswitch) GGGAAGAAAUAACAAUCAACGACGUAUCAUUGUGCCUCGCUUUCCGCGGGGCGAUAAGUCCUGAAGAAAGGGAUGAUAUGACAUAAGAACAUCGG
In words: 1H15N-HSQC NMR. The conditions noted are these: 25 mM K2HPO4, 50 mM KCl, 2 mM MgCl2; pH 6.5, 25 or 37 °C; 0.5 mM RNA, 0.5 mM SAM.

Experiment [3] deals with 15N-16U24G-riboSAM hybridized with 21 nt-DNA (DNA:RNA, riboswitch) GGGAAGAAAUAACAAUCAACGACGUAUCAUUGUGCCUCGCUUUCCGCGGGGCGAUAAGUCCUGAAGAAAGGGAUGAUAUGACAUAAGAACAUCGG/CCGATGTTCTTATGTCATATC
Put plainly: 1H15N-HSQC NMR. To be noted: 25 mM K2HPO4, 50 mM KCl, 2 mM MgCl2; pH 6.5; 0.5 mM SAM, 0.5 mM RNA; 3' end blocked by 21-nt DNA.

Experiment [4] relates to 15N-25U32G-riboSAM hybridized with 19 nt-DNA (DNA:RNA, riboswitch) GGGAAGAAAUAACAAUCAACGACGUAUCAUUGUGCCUCGCUUUCCGCGGGGCGAUAAGUCCUGAAGAAAGGGAUGAUAUGACAUAAGAACAUCGG/CCGATGTTCTTATGTCATA
Put plainly: 1H15N-HSQC NMR. To be noted: 25 mM K2HPO4, 50 mM KCl, 2 mM MgCl2; pH 6.5; 3' end blocked by 19-nt DNA.

Experiment [5] has as its system 2AP-riboSAM (RNA, riboswitch, 2-aminopurine at 59 (replaces U59)) GGGAAGAAAUAACAAUCAACGACGUAUCAUUGUGCCUCGCUUUCCGCGGGGCGAUAAGACCUGAAGAAAGGGAUGAUAUGACAUAAGAACAUCGG
In words: stopped-flow 2AP fluorescence. The conditions noted are these: 100 mM KCl, 2 mM MgCl2; 10 mM HEPES, pH 7.5, room temperature; 0.5 μM RNA.

The subject of experiment [6] is 2AP-mutant (riboSAM mutant, P0 helix disrupted) (RNA, riboswitch, 2-aminopurine at 59 (replaces U59)) GGGAAGAAAUAUGCCUCAACGACGUAUCAUUGUGCCUCGCUUUCCGCGGGGCGAUAAGACCUGAAGAAAGGGAUGAUAUGACAUAAGAACAUCGG
Put plainly: stopped-flow 2AP fluorescence. To be noted: 100 mM KCl, 2 mM MgCl2; 10 mM HEPES, pH 7.5, room temperature; 0.5 μM RNA.

For experiment [7], the system named is 2AP-riboSAM (RNA, riboswitch, 2-aminopurine at 59 (replaces U59)) GGGAAGAAAUAACAAUCAACGACGUAUCAUUGUGCCUCGCUUUCCGCGGGGCGAUAAGACCUGAAGAAAGGGAUGAUAUGACAUAAGAACAUCGG
Put plainly: steady-state 2AP fluorescence titration. The conditions noted are these: 100 mM KCl, 2 mM MgCl2; 10 mM HEPES, pH 7.5, room temperature; 0.5 μM RNA; apparent.

Experiment [8] has as its system 2AP-mutant (riboSAM mutant, P0 helix disrupted) (RNA, riboswitch, 2-aminopurine at 59 (replaces U59)) GGGAAGAAAUAUGCCUCAACGACGUAUCAUUGUGCCUCGCUUUCCGCGGGGCGAUAAGACCUGAAGAAAGGGAUGAUAUGACAUAAGAACAUCGG
In words: steady-state 2AP fluorescence titration. To be noted: 100 mM KCl, 2 mM MgCl2; 10 mM HEPES, pH 7.5, room temperature; 0.5 μM RNA; apparent.

Each structure is given as a SMILES string.

Turning to `C[S+](CC[C@H](N)C(=O)O)C[C@H]1O[C@@H](n2cnc3c(N)ncnc32)[C@H](O)[C@@H]1O` (some centres unmarked), the Kd was 1.03 ± 0.23 µM in experiment [1], 9.650 ± 0.065 µM in experiment [7] and ~ 11.861 ± 0.341 μM in experiment [8]. Also, the binding result is “yes” in experiment [2], “no” in experiment [3] and “yes” in experiment [4]. In addition, the Kon in experiment [5] was determined as 5690 ± 83 M⁻¹ s⁻¹; in experiment [6], 4480 ± 51 M⁻¹ s⁻¹.
